Each structure is given as a SMILES string.

In the first experiment the target is T1, alpha-A crystalline (Homo sapiens, UniProt P02489).
T1 sequence (P02489 1-173): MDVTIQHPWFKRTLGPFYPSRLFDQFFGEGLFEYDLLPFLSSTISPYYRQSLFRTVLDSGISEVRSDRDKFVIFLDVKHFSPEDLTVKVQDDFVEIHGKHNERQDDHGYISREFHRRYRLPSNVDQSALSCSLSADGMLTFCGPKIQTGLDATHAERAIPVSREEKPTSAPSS
Nature of the experiment: Ca+2 and UVC induced aggregation of alpha-A crystalline (absorbance screen).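 Further: recombinant human alpha-A crystallin (500 µg/ml) preincubated 30 min with compound, then UV-induced aggregation tracked by absorbance at time points from 0 to 120 min.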 The format is biochemical. To be noted: 200 μM; Ca+2 and UVC induced aggregation of alpha-A crystalline.
Turning to `CC(CCc1ccc(O)cc1)NCCc1ccc(O)c(O)c1` (stereo not drawn) [CAP1264], the “Percent protection (at 200 μM)” value turned out to be 3%.
Consider `CC(CCc1ccc(O)cc1)NCCc1ccc(O)c(O)c1` (stereo not drawn) [CAP1266], for which the “Percent protection (at 200 μM)” value is reported as −14%.
The same measure, in the same setting: next, `Oc1cc(O)c2c(c1)O[C@H](c1ccc(O)c(O)c1)[C@H](O)C2` [CAP3032]: −16%; `COc1ccc(CCNC(=O)CCCC(=O)NCCc2ccc(OC)c(OC)c2)cc1OC` [CAP1228, N,N′-bis[2-(3,4-dimethoxyphenyl)ethyl]pentanediamide]: 60%.

The experiment is the same for the next values; noted with them: 200 μM; Ca+2 and UVC induced aggregation of alpha-A crystalline; read-out: Percent protection (at 200 μM).
In the case of `O=C(CC1CCC1)NCCc1ccc(O)c(O)c1` [CAP1239], the inhibition at 200 µM is 23%.
In the case of `COc1cc(/C=C/C(=O)/C=C(O)/C=C/c2ccc(O)c(OC)c2)ccc1O` [CAP1459], the inhibition at 200 µM is -95%.
Consider `COc1cc(C(=O)O)cc(OC)c1O` [CAP3107], for which the inhibition at 200 µM worked out at 7%.
With `C[C@](N)(Cc1ccc(O)c(O)c1)C(=O)O` [CAP1056], the inhibition at 200 µM is -5%.
Turning to `O=C1c2ccccc2C(=O)c2c1ccc(S(=O)(=O)O)c2O` [CAP1220], the inhibition at 200 µM is 20%.
For the molecule `CCN(CC)C(=O)/C(C#N)=C/c1cc(O)c(O)c([N+](=O)[O-])c1` [CAP1159], the inhibition at 200 µM was 27%.
The same measure, in the same setting: next, `COc1cc2cc[nH]c2cc1OC` [CAP1519]: 9%; `COc1ccc(CCNC(=O)CCCCC(=O)NCCc2ccc(OC)c(OC)c2)cc1OC` [CAP1225]: 50%.
Still for that read-out and setting: the result for `O=C(O[C@H]1Cc2c(O)cc(O)cc2O[C@H]1c1cc(O)c(O)c(O)c1)c1cc(O)c(O)c(O)c1` [CAP1460] reads 1%.
On the same count and under the same terms, next, `COc1ccc(CCNC(=O)CCCC2CCCC2)cc1OC` [CAP1236]: -2%.
For `CNC[C@H](O)c1ccc(O)c(O)c1` [CAP1043], the inhibition at 200 µM was -5%.
Still for that read-out and setting: the result for `COc1ccc(CCNC(=O)C2CCN(C(=O)c3ccc(F)cc3)CC2)cc1OC` [CAP1232] reads 41%; that for `COc1cc(/C=C/C(=O)CC(=O)/C=C/c2ccc(O)c(OC)c2)ccc1O` [CAP3040], 4%; that for `O=C(O)[C@H]1OC(Oc2cc3oc(-c4ccccc4)cc(=O)c3c(O)c2O)[C@H](O)[C@@H](O)[C@@H]1O` (stereo partly drawn) [CAP1052], 3%.
As to `CCC(CC)C(=O)NCCc1ccc(OC)c(OC)c1` [CAP1223], the inhibition at 200 µM came out at 29%.
In the case of `COc1cc2cc(C(=O)O)[nH]c2cc1OC` [CAP1447], the inhibition at 200 µM worked out at 22%.
With `Oc1cc(O)c2c(c1)O[C@@H](c1ccc(O)c(O)c1)[C@@H](O)C2` [CAP1458], the inhibition at 200 µM was -17%.
Regarding `NCCc1ccc(O)c(O)c1` [CAP1265], the inhibition at 200 µM was -6%.
As to `COC(=O)[C@@H](NC(C)=O)c1ccc(OC(C)=O)c(OC(C)=O)c1` [CAP1518], the inhibition at 200 µM is -4%.
Still for that read-out and setting: next, `O=C1c2ccc(S(=O)(=O)O)c(O)c2C(=O)c2ccc(S(=O)(=O)O)c(O)c21` [CAP1219]: -5%.
The same measure, in the same setting: the result for `COc1ccc(CCNC(=O)C2CC2)cc1OC` [CAP1230, N-[2-(3,4-dimethoxyphenyl)ethyl]cyclopropanecarboxamide] reads 18%.
Still for that read-out and setting: next, `O=C1c2ccccc2C(=O)c2c1cc(S(=O)(=O)O)c(O)c2O` [CAP1072]: 53%; `NC(=O)c1ncn([C@@H]2O[C@H](CO)[C@@H](O)[C@H]2O)n1` [CAP1380]: 16%.
Regarding `COc1cc(CC2NCCc3cc(O)c(O)cc32)cc(OC)c1OC` (stereo not drawn) [CAP1058], the inhibition at 200 µM was -27%.
The same measure, in the same setting: next, `O=C(NCCc1ccccc1)C1CCC(C(=O)NCCc2ccccc2)CC1` (stereo not drawn) [CAP1280]: 44%.

The same experiment, now with this note: preventing Ca+2 and UVC induced aggregation of alpha-A crystalline.
In the case of `CCN(CC)C(=O)/C(C#N)=C/c1cc(O)c(O)c([N+](=O)[O-])c1` [CAP1159], the EC50 (usually the concentration that produces a half-maximal response) stood at 313 µM.
The same measure, in the same setting: next, `N[C@@H](Cc1ccc(O)c(O)c1)C(=O)O` [CAP1042]: 860 µM; `O=C(NCCc1ccccc1)C1CCC(C(=O)NCCc2ccccc2)CC1` (stereo not drawn) [CAP1280]: 193 µM.

The experiment is the same for the next values; noted with them: read-out: Percent protection (at 200 μM).
On to `Cc1cc2c(C(C)C)c(O)c(O)c(C=O)c2c(O)c1-c1c(C)cc2c(C(C)C)c(O)c(O)c(C=O)c2c1O` [CAP1356], for which the inhibition at 200 µM was -46%.

The record behind these values is patent US11872236B2, “Pharmacological agents for treating ocular diseases” (CALASIA PHARMACEUTICALS, INC., priority 2018, dated 2024).
